Compound: CN1CCN(c2ccc3nc(-c4c(N)c5c(F)cccc5[nH]c4=O)[nH]c3c2)CC1 [Dovitinib] + COc1cc2c(Oc3ccc(NC(=O)C4(C(=O)Nc5ccc(F)cc5)CC4)cc3F)ccnc2cc1OCCCN1CCOCC1 [Foretinib] (partner 0.25 µM)
Assay: relative viability (nuclei count vs DMSO), 5 days (fraction); higher = more cells survive
Method in brief: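 Lung cancer cell lines in 1536-well plates were dosed by pin tool the day after seeding, either with one drug alone or with a fixed anchor-drug dose plus five library-drug doses (not always all listed) in √10 steps. After 5 days, cells were fixed and their nuclei stained in one step (final 0.05% Triton X-100, 1% formaldehyde, 1 ug/ml Hoechst), then counted on 4× images. Relative viability is the nuclei count in treated wells divided by that in vehicle wells. Values are medians of duplicate plates.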

Cell Line	relative viability (first compound 0.02 µM)	relative viability (first compound 0.06325 µM)	relative viability (first compound 0.2 µM)	relative viability (first compound 0.6325 µM)	relative viability (first compound 2 µM)
LCLC-97TM1	0.986	0.974	1.01	0.922	1.01
HARA	0.969	0.765	0.846	0.873	0.905
HCC-78	0.632	0.528	0.535	0.599	0.623
NCI-H1666	1.02	0.975	0.961	0.99	0.961
NCI-H2347	1.58	0.902	0.83	1.2	1.02
NCI-H838	1.05	1.02	1.04	0.937	0.961
NCI-H2023	0.707	0.935	0.788	0.868	0.857
201T	0.946	1.01	1.07	1.09	1.06
NCI-H1915	1.07	1.08	1.1	1.07	1.06
NCI-H2009	1.16	1.25	1.22	1.15	1.27
BEN	0.52	0.566	0.68	0.698	0.614
PC-14	0.976	0.91	0.945	0.945	0.914
SK-MES-1	0.895	0.993	0.927	0.86	0.919
NCI-H727	0.815	0.689	0.747	0.799	0.706
NCI-H1355	0.943	0.932	0.713	0.976	0.903
NCI-H1975	1.01	0.962	0.927	0.989	0.975
LK-2	1.39	1.21	1.4	0.946	1.04
NCI-H661	1.05	1	1.08	1.07	1.12
HCC-366	0.958	0.901	0.947	0.925	0.883
HOP-62	1.05	1.18	1.08	1.28	1.07
NCI-H1944	0.833	0.906	0.864	0.903	0.86
SW 1573	0.837	0.913	0.877	0.88	0.885
LU99A	0.714	0.782	0.79	0.812	0.932
NCI-H647	1.23	1.15	1.39	1.17	1.26
A-427	1.17	0.996	1.02	1.07	0.956

Cell Line	relative viability (first compound 0.02 µM)	relative viability (first compound 0.06325 µM)	relative viability (first compound 0.2 µM)	relative viability (first compound 0.6325 µM)	relative viability (first compound 2 µM)
COR-L 105	0.921	0.993	1.2	1.14	1.31
NCI-H441	0.832	1.08	0.774	1.11	1.05
NCI-H2126	1.17	–	1.3	1.14	1.15
EBC-1	0.105	0.0996	0.103	0.0933	0.115
NCI-H460	1	1.03	1.12	0.918	1.03
SK-LU-1	0.875	0.904	0.789	0.773	0.845
NCI-H322M	0.95	0.898	0.941	0.923	0.869
EKVX	0.633	0.721	0.64	0.757	0.808
NCI-H1734	0.9	0.813	0.834	0.735	0.834
SW 900	0.85	0.841	0.919	1	0.792
ABC-1	0.899	1.05	1.2	1.11	1.42
NCI-H520	0.698	0.894	0.818	0.733	0.698
EPLC-272H	0.634	0.841	0.732	0.747	0.687
UMC-11	1.05	1.04	1.01	1	1.05
NCI-H1993	0.759	0.714	0.742	0.771	0.771
NCI-H596	0.84	0.614	0.848	0.961	0.874
NCI-H1793	0.775	0.532	0.684	0.604	0.745
NCI-H1563	0.983	0.977	0.975	0.898	0.953
NCI-H1395	1.07	1.12	0.935	0.947	1.02
NCI-H1299	1.11	1.1	1.11	1.11	1.06
HCC-827	0.983	1.07	1.14	1.09	1.09
ChaGo-K-1	0.848	0.888	0.906	0.892	0.909
NCI-H2228	0.9	0.832	0.928	1.08	0.915
NCI-H2170	0.992	0.986	1.02	0.983	0.974
EMC-BAC-2	1	0.982	0.991	0.948	0.599

Cell Line	relative viability (first compound 0.02 µM)	relative viability (first compound 0.06325 µM)	relative viability (first compound 0.2 µM)	relative viability (first compound 0.6325 µM)	relative viability (first compound 2 µM)
A549	0.943	0.919	0.954	0.985	0.975
NCI-H23	0.899	0.913	1.09	0.962	0.983
RERF-LC-KJ	0.832	0.905	0.96	0.886	0.858
NCI-H358	0.619	0.674	0.683	0.626	0.761
LC-2-ad	0.989	0.946	1.03	0.911	1.05
HCC-15	1.03	0.971	1	1.06	1.03
NCI-H2405	1.02	0.977	1.05	1.04	1.11
LXF-289	0.99	1.01	0.882	1.02	0.953
CAL-12T	0.986	1.12	1.07	1.1	1.12
COR-L23	0.93	1	0.99	0.952	1.04
NCI-H1755	0.935	0.895	1.03	0.92	0.969
NCI-H1437	1.24	1.29	1.22	1.2	1.27
NCI-H2085	1.01	1.16	1.01	0.961	1.01
IA-LM	1.2	1.19	1.05	1.24	1.12
H3255	0.877	0.864	0.904	0.982	0.966
NCI-H650	0.955	1.02	1.1	1	1.15
LCLC-103H	0.901	0.674	0.826	0.79	0.764
LOU-NH91	0.926	0.896	0.95	0.921	1.05
NCI-H1650	1.44	1.21	0.998	0.819	0.972
NCI-H3122	1.06	0.963	0.875	0.985	0.853
PC-3 [JPC-3]	1.08	1	1.1	1.01	1.05
Calu-6	0.925	0.861	0.853	0.874	0.912
NCI-H1651	0.899	0.792	0.836	0.796	0.721
NCI-H2087	1.19	1.15	1.14	1.05	1.16
